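Protocol summary: plate cells (96-well), add compound at 5 concentrations, incubate 48 h, interpolate endpoints linearly. TGI: concentration producing complete growth inhibition.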
Key:
Experiment in all cases: NCI anticancer screen, dose series, 48 h
786-0 renal = tested on: 786-0 renal
A549 NSCLC = tested on: A549 NSCLC
DU-145 prostate = tested on: DU-145 prostate
HOP-62 NSCLC = tested on: HOP-62 NSCLC
HS 578T breast = tested on: HS 578T breast
KM12 colon = tested on: KM12 colon
LOX IMVI melanoma = tested on: LOX IMVI melanoma
MDA-MB-231 breast = tested on: MDA-MB-231 breast
NCI-H460 lung = tested on: NCI-H460 lung
OVCAR-3 ovarian = tested on: OVCAR-3 ovarian
OVCAR-5 ovarian = tested on: OVCAR-5 ovarian
RPMI-8226 leukemia = tested on: RPMI-8226 leukemia
SF-295 CNS = tested on: SF-295 CNS
SK-OV-3 ovarian = tested on: SK-OV-3 ovarian
SN12C renal = tested on: SN12C renal
T-47D breast = tested on: T-47D breast
UACC-62 melanoma = tested on: UACC-62 melanoma
NCI-H226 lung = tested on: NCI-H226 lung
NCI-H522 lung = tested on: NCI-H522 lung
OVCAR-8 ovarian = tested on: OVCAR-8 ovarian

Compound	TGI (786-0 renal) [µM]	TGI (A549 NSCLC) [µM]	TGI (DU-145 prostate) [µM]	TGI (HOP-62 NSCLC) [µM]	TGI (HS 578T breast) [µM]	TGI (KM12 colon) [µM]	TGI (LOX IMVI melanoma) [µM]	TGI (MDA-MB-231 breast) [µM]	TGI (NCI-H460 lung) [µM]	TGI (OVCAR-3 ovarian) [µM]	TGI (OVCAR-5 ovarian) [µM]	TGI (RPMI-8226 leukemia) [µM]	TGI (SF-295 CNS) [µM]	TGI (SK-OV-3 ovarian) [µM]	TGI (SN12C renal) [µM]	TGI (T-47D breast) [µM]	TGI (UACC-62 melanoma) [µM]	TGI (NCI-H226 lung) [µM]	TGI (NCI-H522 lung) [µM]	TGI (OVCAR-8 ovarian) [µM]
COc1ccc(N=Nc2c(C)c(C#N)c(=S)n(C3OC(CO)C(O)C(O)C3O)c2-c2ccccc2)cc1 (stereo not drawn)	> 100	> 100	> 100	98.2	55.3	> 100	99.6	> 100	> 100	55.3	81.6	> 100	98.5	83.3	> 100	97.3	47.6	–	–	–
CC(O)(Cc1ccccc1C#N)Cc1ccccc1C#N	> 100	> 100	> 100	> 100	> 100	> 100	> 100	> 100	> 100	> 100	> 100	–	> 100	> 100	> 100	> 100	> 100	> 100	> 100	> 100
CC(=O)Nc1c(S(=O)(=O)c2ccccc2)c(C)c(C)n1CCN(C)C	> 100	> 100	> 100	–	> 100	> 100	–	> 100	> 100	> 100	> 100	> 100	> 100	> 100	> 100	> 100	> 100	> 100	> 100	> 100
CCCCNC(=O)c1cc2c(cc1Cl)Sc1nccn1S2(=O)=O	> 100	> 100	> 100	> 100	> 100	> 100	> 100	> 100	> 100	> 100	> 100	> 100	> 100	> 100	> 100	> 100	> 100	–	> 100	> 100
Nc1ccc2c(O)cc(=O)[nH]c2n1	> 100	> 100	> 100	–	> 100	> 100	–	> 100	> 100	–	> 100	> 100	> 100	> 100	> 100	> 100	> 100	> 100	> 100	> 100
COc1ccc(C2N(c3ccc(F)cc3)C(=O)N3C(c4ccc(OC)cc4)N(c4ccc(F)cc4)C(=O)N23)cc1 (stereo not drawn)	> 100	> 100	> 100	> 100	> 100	> 100	> 100	> 100	> 100	> 100	> 100	> 100	> 100	–	> 100	> 100	> 100	–	> 100	> 100

— PubChem BioAssay (NCI)
